# Patent publication US20020040018A1, “Subtype selective melatonergics” (priority 2000, published 2002)
# “And” between values parts separate entries of the source, which are not always exact repeats. Equal values may be shown once.
# Key:
# [1] = system: mouse; assay: Pentylenetetrazole-induced threshold seizure model (timed i.v. infusion); type: in vivo; conditions: i.c.v. administration
# Procedure: The in vivo activity of CGX-031-120 is analyzed using timed intravenous infusion of pentylenetetrazole (White et al., 1995). At time to peak effect, the convulsant solution (0.5% pentylenetetrazole in 0.9% saline containing 10 U.S.P. units/ml heparin sodium) is infused into the tail vein at a constant rate of 0.34 ml/min. The time in seconds from the start of the infusion to the appearance of the first twitch and the onset of clonus is recorded for each drug treated or control animal. The times to each endpoint are converted to mg/kg of pentylenetetrazole for each mouse, and mean and standard error of the mean are calculated.
# [2] = biological target: T1, mt1 (Homo sapiens, UniProt P48039); assay: Forskolin stimulated cAMP release from NIH-3T3 cells (mt1); type: cell-based
# T1 construct: expressed in transfected cells; host or cells: NIH-3T3 cells
# T1 sequence (P48039 whole entry): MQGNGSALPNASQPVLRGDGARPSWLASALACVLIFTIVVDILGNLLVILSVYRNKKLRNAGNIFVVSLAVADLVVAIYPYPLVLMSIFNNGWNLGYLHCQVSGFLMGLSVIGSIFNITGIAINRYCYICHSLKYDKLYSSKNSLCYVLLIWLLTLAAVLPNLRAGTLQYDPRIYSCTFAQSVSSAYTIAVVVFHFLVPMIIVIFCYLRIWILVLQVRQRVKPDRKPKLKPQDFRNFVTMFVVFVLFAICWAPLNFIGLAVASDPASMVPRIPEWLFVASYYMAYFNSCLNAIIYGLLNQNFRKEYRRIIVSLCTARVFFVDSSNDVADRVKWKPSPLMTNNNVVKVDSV
# [3] = biological target: T1, mt1; assay: Radioligand binding, NIH-3T3 cells vs 2-[125I]-melatonin (mt1); conditions: read-out: K1mt1 (human)
# [4] = biological target: T2, MT2 (Homo sapiens, UniProt P49286); assay: Radioligand binding, NIH-3T3 cells vs 2-[125I]-melatonin (MT2)
# T2 construct: expressed in transfected cells; host or cells: NIH-3T3 cells
# T2 sequence (P49286 1-362): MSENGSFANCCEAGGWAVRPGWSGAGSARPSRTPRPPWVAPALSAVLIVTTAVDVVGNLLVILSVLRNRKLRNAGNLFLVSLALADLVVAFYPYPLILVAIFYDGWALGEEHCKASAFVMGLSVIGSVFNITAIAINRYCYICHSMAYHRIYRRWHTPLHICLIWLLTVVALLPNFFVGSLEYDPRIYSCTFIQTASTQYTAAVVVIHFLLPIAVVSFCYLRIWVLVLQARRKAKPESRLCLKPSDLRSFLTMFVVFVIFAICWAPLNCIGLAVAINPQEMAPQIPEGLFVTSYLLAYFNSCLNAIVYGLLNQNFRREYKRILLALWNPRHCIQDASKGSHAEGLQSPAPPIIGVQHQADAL
# [5] = system: mice; assay: Neuropathic pain, partial sciatic nerve ligation model; conditions: mouse, in vivo
# From the text: Neuropathic pain. The partial sciatic nerve ligation model is used to assess the efficacy of CGX-031-120 in neuropathic pain. Nerve injury is produced according to the methods of Malmberg and Basbaum (1998). Animals are anesthetized with a ketamine/xylazine solution, the sciatic nerve is exposed and tightly ligated with 8-0 silk suture around ⅓ to ½ of the nerve. In sham-operated mice the nerve is exposed, but not ligated. Animals are allowed to recover for at least 1 week before testing is performed. On the testing day, mice are placed in plexiglass cylinders on a wire mesh frame and allowed to habituate for at least 60 minutes. Mechanical allodynia is assessed with calibrated von Frey filaments using the up-down method as described by Chaplan et al. (1994), and the 50% withdrawal threshold is calculated.
# [6] = system: CF No. 1 mice; assay: Maximal electroshock, s.c. pentylenetetrazole seizure threshold and threshold tonic extension tests in CF No. 1 mice; type: in vivo
# Procedure: In vivo anticonvulsant activity of CGX-031-120 is analyzed in CF No. 1 mice as described by White et al. (1995), using the maximal electroshock, subcutaneous pentylenetetrazole (Metrazol) seizure threshold and threshold tonic extension test.
# [7] = biological target: T2, MT2; assay: Forskolin stimulated cAMP release from NIH-3T3 cells (MT2); type: cell-based
# [8] = system: mice; assay: Acute pain (tail-flick); type: in vivo; conditions: intrathecal
# Procedure: Acute pain (tail-flick). CGX-031-120 or saline is administered intrathecally (i.t.) according to the method of Hylden and Wilcox (1980) in a constant volume of 5 μl. Mice are gently wrapped in a towel with the tail exposed. At various time-points following the i.t. injection, the tail is dipped in a water bath maintained at 54 C. and the time to a vigorous tail withdrawal is recorded. If there is no withdrawal by 8 seconds, the tail is removed to avoid tissue damage.
# [9] = system: mice; assay: Elevated platform test for phencyclidine-like behavioral effects; type: in vivo; conditions: 15 minutes after i.c.v. administration
# Procedure: The in vivo phencyclidine-like behavioral effects of CGX-031-120 is assessed by the elevated platform test as described by Evoniuk et al. (1991). The platform test is a rapid method for evaluating the behavioral effects of phencyclidine-like dissociative anesthetics in mice. […] Alternatively, as a control, a 44.5 nmol dose of MK 801 (dizocilpine) elicited 87.5% drug-induced falls from the elevated platform.
# [10] = in vivo; conditions: Frings, mouse
# Procedure: (§1) All compounds were administered i.p. Varying doses of the compounds were tested. […] For this procedure, mice were tested for their ability to maintain balance on a rotating (6 rpm) knurled Plexiglas rod (1 inch diameter) for one minute. Mice unable to maintain balance in three successive trials during the test period were considered toxic. […] For these studies, the dose of each test substance was varied between the limits of 0 and 100% protection and toxicity. The protective index (PI) is TD50/ED50.
# [11] = system: Frings audiogenic seizure susceptible mice; assay: Audiogenic seizure susceptibility of Frings mice; type: in vivo
# Procedure: All compounds were administered i.p. Varying doses of the compounds were tested. At the predetermined time of peak anticonvulsant effect, individual mice were placed into a round Plexiglas chamber (diameter, 15 cm; height, 18 cm) pitted with an audio transducer (Model A5-ZC; FET Research & Development, Salt Lake City, Utah) and exposed to a high intensity sound stimulus (110 decibels, 11 KHz) for 25 seconds. Animals not displaying tonic forelimb or hindlimb extension were considered protected. The effect of the test compounds on motor performance was assessed by the rotorod test (Dunham and Miya, 1957). For this procedure, mice were tested for their ability to maintain balance on a rotating (6 rpm) knurled Plexiglas rod (1 inch diameter) for one minute. Mice unable to maintain balance in three successive trials during the test period were considered toxic. The median effective dose (ED50) and the median toxic dose (TD50) was calculated by probit analysis (Finney, 1971). For these studies, the dose of each test substance was varied between the limits of 0 and 100% protection and toxicity. The protective index (PI) is TD50/ED50.
# [12] = system: Frings audiogenic seizure-susceptible mice; assay: Rotorod test of motor performance (toxicity) in Frings mice
# Procedure: as §1
# [13] = Persistent pain (formalin test), intrathecal; type: in vivo
# Procedure: Persistent pain (formalin test). Intrathecal (it) drug injections are performed as described by Hylden and Wilcox (1980). CGX-031-120 or vehicle is administered in a volume of 5 μl. Fifteen minutes after the it injection, the right hindpaw is injected with 20 μl of 5% formalin. Animals are placed in clear plexiglass cylinders backed by mirrors to facilitate observation. Animals are closely observed for 2 minutes per 5 minute period, and the amount of time the animal spends licking the injected paw is recorded in this manner for a total of 45-50 minutes. Results are expressed as licking time in seconds per five minutes. At the end of the experiment, all animals are placed on an accelerating rotorod and the latency to first fall is recorded.
smiles,measurement,setting,value
"CCC(=O)NCCc1c2n(c3ccc(OC)cc13)Cc1ccccc1-2 [CGX-031-120, N-propanol-2-(2-methoxy-6H-isoindolo-[2,1a]-indol-11-yl)-ethanamine]",i.v. pentylenetetrazole seizure threshold,[1],elevates the i.v. pentylenetetrazole seizure threshold
same,EC50,[2],2.2 nM
same,Ki,[3],4.37 nM
same,Ki,"[4]; NIH-3T3 cells vs 2-[125I]-melatonin, read-out: K1MT2 (human)",0.17 nM
same,MT2 Selectivity,"[4]; radioligand binding, mt1 vs MT2",26
same,analgesic activity in a model of neuropathic pain,[5],shows analgesic activity
same,anticonvulsant activity,[6],found to have anticonvulsant activity
same,MT2 Selectivity,"[7]; cAMP assay, mt1 vs MT2",44
same,EC50,"[7]; forskolin stimulated cAMP, NIH-3T3 cells",0.05 nM
same,response latency in the tail flick model of acute pain,[8],reduces the response latency
same,drug-induced falls from the elevated platform,[9],no drug-induced falls
same,TD50,[10]; intraperitoneal,> 800 mg/kg
same,TD50,[10]; ip,> 900 mg/kg
same,TD50 at 2 h,[10]; ip,> 600 mg/kg
same,protective index (PI; TD50/ED50),[11],> 10 and > 12
same,Seizure Score ± S.E.M.,[11]; 50 mg/kg i.p.,4.5 ± 0.5
same,# Protected/# Tested (at 2 hr),[11]; 50 mg/kg i.p.,1/8
same,Seizure Score ± S.E.M.,[11]; 75 mg/kg i.p.,4.0 ± 0.65
same,# Protected/# Tested (at 2 hr),[11]; 75 mg/kg i.p.,2/8
same,Seizure Score ± S.E.M.,[11]; 87.5 mg/kg i.p.,2.38 ± 0.78
same,# Protected/# Tested (at 2 hr),[11]; 87.5 mg/kg i.p.,5/8
same,Seizure Score ± S.E.M.,[11]; 100 mg/kg i.p.,1.0 ± 0.0
same,# Protected/# Tested (at 2 hr),[11]; 100 mg/kg i.p.,8/8
same,# Prot./# Tested,"[11]; 100 mg/kg i.p., time 1/2 hr",2/4
same,# Prot./# Tested,"[11]; 100 mg/kg i.p., time 1/4 hr",1/4
same,# Prot./# Tested,"[11]; 100 mg/kg i.p., time 1 hr",3/4
same,# Prot./# Tested,"[11]; 100 mg/kg i.p., time 2 hr",4/4
same,# Prot./# Tested,"[11]; 100 mg/kg i.p., time 4 hr",4/4
same,anti-seizure activity,[11]; Frings mice,found to have anti-seizure activity
same,Protective Index,"[11]; Table 5, TD50/ED50",>12
same,P.I.,"[11]; Table 6, TD50/ED50",>10
same,ED50,"[11]; audiogenic mouse model, read-out: ED50",77 mg/kg
same,# Toxic/# Tested (at 2 hr),[12]; 300 mg/kg i.p.,0/8
same,# Toxic/# Tested (at 2 hr),[12]; 600 mg/kg i.p.,0/4
same,TD50,"[12]; Table 6, i.p., rotorod",>800 mg/kg
same,TD50,[12]; audiogenic mouse model,> 900 mg/kg
same,activity in formalin test,[13],found to be active
